# Earlier results in patent US8828934B2, “Mnk kinase homologous proteins involved in the regulation of energy homeostasis and organelle metabolism” (Boehringer Ingelheim International GmbH, priority 2001, dated 2014).
# Assays:
# [1] = not cytotoxic up to this concentration
# [2] = test system: Mnk2 (Mnk2a or Mnk2b) or Mnk1; conditions: compound added to cell culture cells transfected with Mnk2 (Mnk2a or Mnk2b) or Mnk1
compound,measurement,setting,value
Nc1ncnc2n[nH]c(Nc3ccc(F)cc3)c12 [CGP57380],concentration up to which not cytotoxic,[1],> 30 µM
same,reduction in phosphorylated eIF4E,[2],strong reduction in phosphorylated eIF4E
